# Laboratory results as given in paper PMC5374420, “In Search of Small Molecule Inhibitors Targeting the Flexible CK2 Subunit Interface” (Pharmaceuticals, 2017).
# Where a SMILES comes first, the peptide text is derived from it. Bridges are numbered along the chain shown (N, C = ends).
# How the values were obtained:
# CK2α–CK2β interaction = target: T1, CK2α–CK2β interaction (Homo sapiens, UniProt P68400); assay: In vitro CK2α–CK2β interaction assay; assay type: binding; details: read-out: inhibition of subunit interaction
# T1 construct: made in house
# T1 sequence (P68400 whole entry): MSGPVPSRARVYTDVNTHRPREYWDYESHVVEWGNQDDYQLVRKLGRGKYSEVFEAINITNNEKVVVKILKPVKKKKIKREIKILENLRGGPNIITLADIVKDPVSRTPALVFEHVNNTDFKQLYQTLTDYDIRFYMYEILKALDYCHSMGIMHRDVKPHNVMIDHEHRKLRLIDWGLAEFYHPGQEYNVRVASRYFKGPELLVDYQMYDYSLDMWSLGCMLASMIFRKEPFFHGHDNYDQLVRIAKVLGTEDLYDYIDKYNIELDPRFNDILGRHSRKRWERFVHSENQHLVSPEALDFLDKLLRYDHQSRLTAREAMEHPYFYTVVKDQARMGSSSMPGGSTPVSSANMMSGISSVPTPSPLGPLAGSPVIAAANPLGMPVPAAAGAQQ
# Procedure: Figure 4 Inhibitory activity of a TAT-Pc analogue in vitro. (A) CK2 holoenzyme (100 nM) was incubated in the presence of increasing concentrations of TAT-Pc 13 for 15 min at 4 °C. CK2 activity was then determined with CK2β-dependent or independent peptide substrates; (B) [^35S]-labeled CK2α was incubated with biotinylated MBP-CK2β immobilized on streptavidin coated plates (preformed complex) in the absence (1) or presence (2) of TAT-Pc 13. Alternatively, [^35S]-labeled CK2α was incubated with TAT-Pc 13 (3) or random TAT-Pc 13 (4) and then with immobilized biotinylated MBP-CK2β. After washing, the amount of [^35S]-labeled CK2α remaining in the complex was determined by radioactivity counting. Representative data shown from two independent experiments. Results are presented as mean ± s.d. of triplicates.
# The CK2α–CK2β interaction assay involved competition between plate-bound biotinylated MBP–CK2β and various cyclic peptides for binding to [^35S] methionine-labelled CK2α. The assay was performed as previously described in [15].
# [1] = target: T2, CK2α/CK2β subunit interaction in MCF-10A cells (Homo sapiens, UniProt P68400); assay: In situ proximity ligation assay of CK2α and CK2β; assay type: cell-based; details: 50 µM, 6 h, WT MCF-10A cells; positive control 4.8 ± 1.5 dots/cell
# T2 construct: endogenous in cells; host or cells: MCF-10A (WT)
# T2 sequence (P68400 whole entry): as above
# Procedure: Figure 7 Uptake and cellular effects of TAT-Pc 13. (A) kinetic of TAMRA-TAT-Pc 13 uptake in MCF-10A cells; (B) WT or CK2β-depleted MCF-10A cells were incubated with 50 µM TAT or TAT-Pc 13 for 8 h and the expression of CK2 subunits was evaluated by Western blot; (C) anti-CK2β immunoprecipitates were prepared from WT MCF-10A cells incubated with 50 µM TAT or TAT-Pc 13 for 2 h. Presence of CK2 subunits in the corresponding immunoprecipitates was determined by Western blot; (D) in situ proximity ligation images of MCF-10A cells incubated with 50 µM TAT (a,b,d) or TAT-Pc 13 (c) for 6 h. WT cells were incubated with CK2α antibody alone (a) or CK2α and CK2β antibodies (b,c). […]
# PLA is an antibody-based method representing a reliable readout of molecular proximity of two antigens located on two distinct proteins. […] The fluorescent signal from each pair of PLA probes confirms a close proximity and not simply subcellular colocalization and can then be detected and quantified as fluorescent spots in microscopic images of the cells. […] No signal was detected in CK2β-depleted cells (panel d).
# In situ PLAs were performed using a Duolink kit (Olink Bioscience, Uppsala, Sweden) according to the manufacturer’s instructions with some modifications. […] Images were observed using a Zeiss Apotome microscope and analyzed using a Zen Pro imaging software (Zeiss, Oberkochen, Germany). […]
compound,measurement,setting,value
CC[C@H](C)[C@@H]1NC(=O)[C@H](CCCCN)NC(=O)[C@H](Cc2ccccc2)NC(=O)CNC(=O)[C@H](Cc2ccc(O)cc2)NC(=O)[C@H](CC(C)C)NC(=O)[C@H](CCCNC(=N)N)NC(=O)CNC(=O)CNC(=O)[C@@H](NC(=O)[C@H](CCC(N)=O)NC(=O)[C@@H]2CCCN2C(=O)[C@@H]2CCCN2C(=O)[C@H](CCCNC(=N)N)NC(=O)[C@H](CCCNC(=N)N)NC(=O)[C@H](CCCNC(=N)N)NC(=O)[C@H](CCC(N)=O)NC(=O)[C@H](CCCNC(=N)N)NC(=O)[C@H](CCCNC(=N)N)NC(=O)[C@H](CCCCN)NC(=O)[C@H](CCCCN)NC(=O)[C@H](CCCNC(=N)N)NC(=O)CN)CCCCNC(=O)CNC(=O)CNC(=O)[C@H](Cc2c[nH]cn2)NC1=O [TAT-Pc 13] (H-GRKKRRQRRRPPQKGGRLYGFKIHGG; lactam 14-C; N-terminus assumed),inhibition at 50 µM,CK2α–CK2β interaction,80%
same,number of CK2α/CK2β interaction dots,[1],2.2 ± 1.1 dots/cell
